Assay results: ChEMBL document CHEMBL1152433, “Pyrano[3,2-c]quinoline-6-chlorotacrine hybrids as a novel family of acetylcholinesterase- and beta-amyloid-directed anti-Alzheimer compounds” (J Med Chem, 2009)
Activity calls are given as the source filed them. The rule behind the calls is not given here.

What was measured:
[1] = target: Cholinesterase (Homo sapiens, UniProt P06276); experiment: Inhibition of human serum BChE by Ellman's method
[2] = target: T1, Beta-secretase 1 (Homo sapiens, UniProt P56817); experiment: Inhibition of human recombinant BACE1 at 2.5 uM by fluorimetric assay
[3] = target: Amyloid-beta precursor protein (Homo sapiens) (UniProt P05067); experiment: Inhibition of self-induced amyloid beta (1-42) aggregation at 50 uM by thioflavin T fluorescence method
[4] = target: T2, Acetylcholinesterase (Homo sapiens, UniProt P22303)
Description: Inhibition of AChE in human erythrocytes by Ellman's method

[5] = in vitro; conditions: PAMPA
Description: Membrane permeability dissolved in PBS/EtOH (70:30) mixture by PAMPA-BBB assay

[6] = target: T3, Acetylcholinesterase (Bos taurus, UniProt P23795); experiment: Inhibition of bovine AChE by Ellman's method
T3 sequence (P23795 whole entry): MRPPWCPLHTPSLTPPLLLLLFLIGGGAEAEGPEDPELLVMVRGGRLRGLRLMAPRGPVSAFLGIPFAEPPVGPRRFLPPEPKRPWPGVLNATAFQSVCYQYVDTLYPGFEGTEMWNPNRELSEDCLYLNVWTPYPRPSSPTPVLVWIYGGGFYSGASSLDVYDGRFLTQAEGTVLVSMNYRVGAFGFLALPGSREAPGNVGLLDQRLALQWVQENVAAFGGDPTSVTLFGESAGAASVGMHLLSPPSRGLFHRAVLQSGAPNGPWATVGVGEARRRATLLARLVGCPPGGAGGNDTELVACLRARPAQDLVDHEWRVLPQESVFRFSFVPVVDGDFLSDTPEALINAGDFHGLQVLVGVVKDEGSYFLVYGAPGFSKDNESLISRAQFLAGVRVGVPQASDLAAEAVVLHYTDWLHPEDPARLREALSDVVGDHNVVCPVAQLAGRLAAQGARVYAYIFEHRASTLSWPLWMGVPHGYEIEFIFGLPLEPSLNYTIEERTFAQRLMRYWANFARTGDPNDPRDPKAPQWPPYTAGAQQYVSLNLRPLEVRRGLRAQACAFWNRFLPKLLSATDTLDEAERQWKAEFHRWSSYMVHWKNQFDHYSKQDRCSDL

[7] = in vitro; conditions: PAMPA; remark: listed apart in the source
Description: Membrane permeability dissolved in PBS/EtOH (80:20) mixture by PAMPA-BBB assay

[8] = target: T1, Beta-secretase 1; experiment: Inhibition of human recombinant BACE1 by fluorimetric assay
[9] = target: T2, Acetylcholinesterase; experiment: Inhibition of human recombinant AChE by Lineweaver-Burke reciprocal plot analysis

Amyloid-beta precursor protein (Homo sapiens), sequence (P05067 whole entry): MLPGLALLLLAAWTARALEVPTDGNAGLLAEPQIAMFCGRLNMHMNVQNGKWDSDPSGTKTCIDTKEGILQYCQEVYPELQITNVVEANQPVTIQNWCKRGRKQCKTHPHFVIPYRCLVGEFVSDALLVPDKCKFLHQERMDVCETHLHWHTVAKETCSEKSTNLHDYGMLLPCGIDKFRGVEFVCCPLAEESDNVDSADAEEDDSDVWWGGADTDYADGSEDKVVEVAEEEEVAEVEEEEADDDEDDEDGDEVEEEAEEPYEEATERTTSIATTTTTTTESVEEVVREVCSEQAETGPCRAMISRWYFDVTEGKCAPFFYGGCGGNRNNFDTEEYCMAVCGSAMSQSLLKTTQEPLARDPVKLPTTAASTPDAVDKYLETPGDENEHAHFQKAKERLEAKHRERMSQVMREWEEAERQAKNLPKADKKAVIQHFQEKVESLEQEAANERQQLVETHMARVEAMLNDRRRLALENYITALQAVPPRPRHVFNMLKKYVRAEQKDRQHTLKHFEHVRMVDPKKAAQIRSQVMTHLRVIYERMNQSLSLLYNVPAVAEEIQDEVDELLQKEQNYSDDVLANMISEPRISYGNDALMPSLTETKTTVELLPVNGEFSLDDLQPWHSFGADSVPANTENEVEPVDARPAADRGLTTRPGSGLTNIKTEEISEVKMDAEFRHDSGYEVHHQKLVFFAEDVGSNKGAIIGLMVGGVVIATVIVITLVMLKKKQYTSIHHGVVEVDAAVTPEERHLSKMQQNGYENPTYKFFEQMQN
T2 sequence (P22303 whole entry): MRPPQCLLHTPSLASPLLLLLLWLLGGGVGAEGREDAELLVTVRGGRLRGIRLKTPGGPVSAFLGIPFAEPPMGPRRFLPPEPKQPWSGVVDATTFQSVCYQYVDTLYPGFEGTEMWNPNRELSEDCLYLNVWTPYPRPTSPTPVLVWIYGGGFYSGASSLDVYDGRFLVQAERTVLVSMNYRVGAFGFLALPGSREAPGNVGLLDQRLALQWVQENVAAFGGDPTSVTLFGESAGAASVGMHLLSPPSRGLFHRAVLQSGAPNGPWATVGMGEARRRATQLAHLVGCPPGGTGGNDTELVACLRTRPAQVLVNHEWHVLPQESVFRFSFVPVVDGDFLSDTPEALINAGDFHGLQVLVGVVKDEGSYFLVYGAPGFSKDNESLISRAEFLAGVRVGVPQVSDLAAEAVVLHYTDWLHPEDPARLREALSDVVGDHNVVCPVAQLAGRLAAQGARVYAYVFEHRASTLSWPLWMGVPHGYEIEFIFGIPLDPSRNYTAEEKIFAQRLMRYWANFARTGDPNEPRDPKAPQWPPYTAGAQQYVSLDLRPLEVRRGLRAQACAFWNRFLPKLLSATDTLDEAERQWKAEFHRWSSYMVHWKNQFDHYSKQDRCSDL
Cholinesterase, sequence (P06276 whole entry): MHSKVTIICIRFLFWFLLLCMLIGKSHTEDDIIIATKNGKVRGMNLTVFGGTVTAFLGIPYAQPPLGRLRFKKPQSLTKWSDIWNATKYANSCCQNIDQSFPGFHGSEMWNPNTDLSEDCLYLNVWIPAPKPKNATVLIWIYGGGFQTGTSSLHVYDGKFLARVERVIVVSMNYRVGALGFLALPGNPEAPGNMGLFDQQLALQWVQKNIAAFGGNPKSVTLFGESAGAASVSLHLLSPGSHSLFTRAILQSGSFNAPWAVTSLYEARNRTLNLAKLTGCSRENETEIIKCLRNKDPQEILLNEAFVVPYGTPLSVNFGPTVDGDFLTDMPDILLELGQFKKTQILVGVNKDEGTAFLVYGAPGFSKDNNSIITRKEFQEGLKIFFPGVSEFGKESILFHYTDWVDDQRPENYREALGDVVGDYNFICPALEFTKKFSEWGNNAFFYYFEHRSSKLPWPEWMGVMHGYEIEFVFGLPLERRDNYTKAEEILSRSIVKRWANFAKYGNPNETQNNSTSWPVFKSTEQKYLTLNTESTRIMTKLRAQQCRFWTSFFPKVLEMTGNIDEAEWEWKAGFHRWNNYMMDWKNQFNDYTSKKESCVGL
T1 sequence (P56817 whole entry): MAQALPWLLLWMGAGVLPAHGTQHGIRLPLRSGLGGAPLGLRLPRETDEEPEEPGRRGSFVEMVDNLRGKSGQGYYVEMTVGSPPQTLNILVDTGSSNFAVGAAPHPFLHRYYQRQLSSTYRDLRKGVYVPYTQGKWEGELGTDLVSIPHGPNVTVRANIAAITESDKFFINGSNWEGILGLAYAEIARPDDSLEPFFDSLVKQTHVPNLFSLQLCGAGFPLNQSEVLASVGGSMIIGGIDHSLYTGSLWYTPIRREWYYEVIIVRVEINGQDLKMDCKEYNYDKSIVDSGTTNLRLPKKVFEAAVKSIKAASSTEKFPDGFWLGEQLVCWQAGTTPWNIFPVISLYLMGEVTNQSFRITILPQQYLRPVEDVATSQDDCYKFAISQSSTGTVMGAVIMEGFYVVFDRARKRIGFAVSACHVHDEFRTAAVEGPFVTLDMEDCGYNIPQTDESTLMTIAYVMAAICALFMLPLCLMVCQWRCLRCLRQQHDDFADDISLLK

| SMILES | IC50 [1] [nM] | inhibition [2] | inhibition [3] | IC50 [4] [nM] | Papp [5] [×10⁻⁶ cm/s] | IC50 [6] [nM] | Papp [7] [×10⁻⁶ cm/s] | IC50 [8] [nM] | Ki [9] [nM] |
| --- | --- | --- | --- | --- | --- | --- | --- | --- | --- |
| Cl.Cl.Cl.Cl.O=C(NCCCCCCCNc1c2c(nc3cc(Cl)ccc13)CCCC2)c1ccc2nc(-c3ccc(Cl)cc3)c3c(c2c1)OCCC3 | 1930 | 14.5% | 28.6% | 18.3 | 17.7 | 10.3 |  |  |  |
| O=C(NCCCCCCCCCNc1c2c(nc3cc(Cl)ccc13)CCCC2)c1ccc2nc(-c3ccc(Cl)cc3)c3c(c2c1)OCCC3 | 1390 |  |  | 24.9 |  | 24 |  |  |  |
| CC[N+](C)(CC)CCC[n+]1c(-c2ccccc2)c2cc(N)ccc2c2ccc(N)cc21 [PROPIDIUM] |  |  | 89.8% |  |  | 6290 |  |  |  |
| Cl.Cl.Cl.O=C(CCc1ccc2nc(-c3ccccc3)c3c(c2c1)OCCC3)NCCCCCCCNc1c2c(nc3cc(Cl)ccc13)CCCC2 | 234 | 34.4% | 49.1% | 14.4 | 10.2 | 29.9 |  |  |  |
| Cl.Nc1c2c(nc3cc(Cl)ccc13)CCCC2 |  | inactive | 7.1% |  |  |  | 19.8 |  |  |
| c1ccc2c(NCCCCCCCNc3c4c(nc5ccccc35)CCCC4)c3c(nc2c1)CCCC3 |  |  |  |  |  |  |  | 7500 |  |
| Cl.Cl.O=C(CCc1ccc2nc(-c3ccccc3)c3c(c2c1)OCCC3)NCCCCCNc1c2c(nc3cc(Cl)ccc13)CCCC2 | 290 | inactive | 12.2% | 9.64 | 10.6 | 23.9 |  |  |  |
| Cl.Cl.Cl.Cl.O=C(NCCCCCCNc1c2c(nc3cc(Cl)ccc13)CCCC2)c1ccc2nc(-c3ccc(Cl)cc3)c3c(c2c1)OCCC3 | 1070 | inactive | 16.4% | 19.2 | 14.9 | 20.4 |  |  |  |
| Cl.Cl.Cl.O=C(CCc1ccc2nc(-c3ccccc3)c3c(c2c1)OCCC3)NCCCCNc1c2c(nc3cc(Cl)ccc13)CCCC2 | 586 | inactive | 45.3% | 16.6 |  | 48.1 | 15.1 |  |  |
| CN(C)CCCN1c2ccccc2Sc2ccc(Cl)cc21 [CHLORPROMAZINE] |  |  |  |  | 13.6 |  | 8.5 |  |  |
| Cl.Cl.Cl.O=C(CCc1ccc2nc(-c3ccccc3)c3c(c2c1)OCCC3)NCCCCCCCCNc1c2c(nc3cc(Cl)ccc13)CCCC2 | 1080 | 77.8% | 47.3% | 14 | 10.1 | 34.1 |  | 1810 |  |
| CCOC(=O)c1ccc2nc(-c3ccc(Cl)cc3)c3c(c2c1)OCCC3 | > 10000 |  |  | > 10000 |  | > 10000 |  |  |  |
| COC(=O)CCc1ccc2nc(-c3ccccc3)c3c(c2c1)OCCC3 |  | inactive | inactive |  |  | > 10000 |  |  |  |
| O=C(NCCCCCCCCCCNc1c2c(nc3cc(Cl)ccc13)CCCC2)c1ccc2nc(-c3ccc(Cl)cc3)c3c(c2c1)OCCC3 | 1620 | inactive | 20.5% | 50 |  | 93.7 |  |  |  |
| O=C(NCCCCCCCCNc1c2c(nc3cc(Cl)ccc13)CCCC2)c1ccc2nc(-c3ccc(Cl)cc3)c3c(c2c1)OCCC3 | 331 | 18.5% | 21.5% | 7.03 |  | 10.4 |  |  | 1.91 |
| Cl.Cl.Cl.O=C(CCc1ccc2nc(-c3ccccc3)c3c(c2c1)OCCC3)NCCCCCCNc1c2c(nc3cc(Cl)ccc13)CCCC2 | 218 | 19.6% | 30.8% | 11.1 |  | 30.8 | 13.2 |  |  |
